Results on two compounds are retold here after patent US20240109969A1, “Dosing Regimen for Therapies Comprising Bispecific Anti-EGFR/C-Met Antibodies” (Janssen Biotech, Inc., priority 2022, published 2024).

“Also recorded” adds a separate entry of the source.

For one series, the target named is P-glycoprotein (P-gp) (Homo sapiens, UniProt P08183). To be noted: cited from earlier work.
The target in series [1] is T1, multidrug resistance protein 4 (MRP4) (Homo sapiens, UniProt O15439).
T1 sequence (O15439 1-1325): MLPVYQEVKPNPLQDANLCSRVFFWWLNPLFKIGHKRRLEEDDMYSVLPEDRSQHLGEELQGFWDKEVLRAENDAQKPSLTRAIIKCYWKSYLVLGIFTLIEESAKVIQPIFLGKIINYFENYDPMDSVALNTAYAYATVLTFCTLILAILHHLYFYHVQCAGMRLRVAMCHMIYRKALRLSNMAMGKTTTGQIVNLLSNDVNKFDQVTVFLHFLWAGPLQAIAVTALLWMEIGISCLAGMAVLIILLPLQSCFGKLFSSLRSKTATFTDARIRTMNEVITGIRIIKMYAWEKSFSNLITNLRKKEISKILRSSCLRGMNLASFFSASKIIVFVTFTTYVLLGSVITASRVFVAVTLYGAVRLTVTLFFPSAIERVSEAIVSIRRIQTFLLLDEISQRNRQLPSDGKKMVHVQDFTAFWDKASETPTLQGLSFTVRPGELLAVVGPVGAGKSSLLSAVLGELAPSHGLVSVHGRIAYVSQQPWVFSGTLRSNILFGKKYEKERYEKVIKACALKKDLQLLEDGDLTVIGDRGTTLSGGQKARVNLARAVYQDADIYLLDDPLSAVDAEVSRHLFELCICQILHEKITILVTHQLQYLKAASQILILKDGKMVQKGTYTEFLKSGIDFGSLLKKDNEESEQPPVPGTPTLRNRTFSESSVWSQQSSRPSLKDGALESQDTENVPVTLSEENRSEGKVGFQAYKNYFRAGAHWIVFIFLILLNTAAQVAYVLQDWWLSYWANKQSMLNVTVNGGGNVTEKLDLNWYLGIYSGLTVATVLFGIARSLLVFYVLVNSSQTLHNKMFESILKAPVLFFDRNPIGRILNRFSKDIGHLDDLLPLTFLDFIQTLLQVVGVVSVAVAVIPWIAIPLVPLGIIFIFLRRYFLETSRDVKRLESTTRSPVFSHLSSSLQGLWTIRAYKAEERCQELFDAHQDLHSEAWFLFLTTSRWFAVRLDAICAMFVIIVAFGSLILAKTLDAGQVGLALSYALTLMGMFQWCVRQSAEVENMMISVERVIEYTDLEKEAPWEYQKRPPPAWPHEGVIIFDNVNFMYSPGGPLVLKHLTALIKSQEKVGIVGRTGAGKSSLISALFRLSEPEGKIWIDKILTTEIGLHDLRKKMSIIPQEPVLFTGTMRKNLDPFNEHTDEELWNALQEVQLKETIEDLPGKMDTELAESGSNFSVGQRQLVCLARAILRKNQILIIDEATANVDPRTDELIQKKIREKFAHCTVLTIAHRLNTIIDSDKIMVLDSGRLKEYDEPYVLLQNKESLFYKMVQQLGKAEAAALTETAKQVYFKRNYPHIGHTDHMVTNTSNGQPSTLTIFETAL
Conditions: cited from earlier work.

The target in series [2] is T2, breast cancer resistance protein (BCRP) (Homo sapiens, UniProt Q9UNQ0).
T2 sequence (Q9UNQ0 1-655): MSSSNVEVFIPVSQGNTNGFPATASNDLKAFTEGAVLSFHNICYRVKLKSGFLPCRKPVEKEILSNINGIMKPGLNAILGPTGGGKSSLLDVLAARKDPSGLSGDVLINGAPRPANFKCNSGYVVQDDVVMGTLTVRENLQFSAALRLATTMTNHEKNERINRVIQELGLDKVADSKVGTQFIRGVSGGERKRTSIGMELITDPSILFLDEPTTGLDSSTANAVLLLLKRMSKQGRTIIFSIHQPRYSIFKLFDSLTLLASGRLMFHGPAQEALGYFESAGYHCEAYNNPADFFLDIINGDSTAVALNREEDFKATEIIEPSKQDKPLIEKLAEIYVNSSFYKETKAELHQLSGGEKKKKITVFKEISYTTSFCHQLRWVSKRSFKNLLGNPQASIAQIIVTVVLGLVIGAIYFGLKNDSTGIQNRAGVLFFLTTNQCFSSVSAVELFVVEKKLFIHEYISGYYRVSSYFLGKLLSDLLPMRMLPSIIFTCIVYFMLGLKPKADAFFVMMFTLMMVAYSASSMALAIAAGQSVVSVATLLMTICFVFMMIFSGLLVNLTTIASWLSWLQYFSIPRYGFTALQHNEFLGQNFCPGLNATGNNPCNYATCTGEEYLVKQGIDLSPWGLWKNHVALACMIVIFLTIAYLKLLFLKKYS
Conditions: cited from earlier work.

For series [3], the target named is T3, Organic Cation Transporter 1 (OCT1) (Homo sapiens, UniProt O15245).
T3 sequence (O15245 1-554): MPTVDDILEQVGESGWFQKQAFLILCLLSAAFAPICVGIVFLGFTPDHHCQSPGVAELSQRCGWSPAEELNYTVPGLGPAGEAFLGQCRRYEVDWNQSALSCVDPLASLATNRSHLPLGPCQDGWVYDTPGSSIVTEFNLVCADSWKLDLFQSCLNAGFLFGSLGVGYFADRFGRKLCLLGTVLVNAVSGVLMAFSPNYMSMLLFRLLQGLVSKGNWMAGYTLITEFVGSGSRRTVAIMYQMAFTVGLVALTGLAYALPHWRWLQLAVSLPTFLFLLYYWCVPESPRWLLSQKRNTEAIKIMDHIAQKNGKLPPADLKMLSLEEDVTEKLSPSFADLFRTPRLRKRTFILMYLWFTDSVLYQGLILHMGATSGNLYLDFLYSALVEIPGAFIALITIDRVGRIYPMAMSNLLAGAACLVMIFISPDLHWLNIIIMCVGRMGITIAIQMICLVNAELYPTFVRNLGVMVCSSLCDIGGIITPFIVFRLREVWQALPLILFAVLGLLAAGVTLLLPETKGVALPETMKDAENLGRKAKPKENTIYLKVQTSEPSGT
Conditions: cited from earlier work.

P-glycoprotein (P-gp), sequence (P08183 whole entry): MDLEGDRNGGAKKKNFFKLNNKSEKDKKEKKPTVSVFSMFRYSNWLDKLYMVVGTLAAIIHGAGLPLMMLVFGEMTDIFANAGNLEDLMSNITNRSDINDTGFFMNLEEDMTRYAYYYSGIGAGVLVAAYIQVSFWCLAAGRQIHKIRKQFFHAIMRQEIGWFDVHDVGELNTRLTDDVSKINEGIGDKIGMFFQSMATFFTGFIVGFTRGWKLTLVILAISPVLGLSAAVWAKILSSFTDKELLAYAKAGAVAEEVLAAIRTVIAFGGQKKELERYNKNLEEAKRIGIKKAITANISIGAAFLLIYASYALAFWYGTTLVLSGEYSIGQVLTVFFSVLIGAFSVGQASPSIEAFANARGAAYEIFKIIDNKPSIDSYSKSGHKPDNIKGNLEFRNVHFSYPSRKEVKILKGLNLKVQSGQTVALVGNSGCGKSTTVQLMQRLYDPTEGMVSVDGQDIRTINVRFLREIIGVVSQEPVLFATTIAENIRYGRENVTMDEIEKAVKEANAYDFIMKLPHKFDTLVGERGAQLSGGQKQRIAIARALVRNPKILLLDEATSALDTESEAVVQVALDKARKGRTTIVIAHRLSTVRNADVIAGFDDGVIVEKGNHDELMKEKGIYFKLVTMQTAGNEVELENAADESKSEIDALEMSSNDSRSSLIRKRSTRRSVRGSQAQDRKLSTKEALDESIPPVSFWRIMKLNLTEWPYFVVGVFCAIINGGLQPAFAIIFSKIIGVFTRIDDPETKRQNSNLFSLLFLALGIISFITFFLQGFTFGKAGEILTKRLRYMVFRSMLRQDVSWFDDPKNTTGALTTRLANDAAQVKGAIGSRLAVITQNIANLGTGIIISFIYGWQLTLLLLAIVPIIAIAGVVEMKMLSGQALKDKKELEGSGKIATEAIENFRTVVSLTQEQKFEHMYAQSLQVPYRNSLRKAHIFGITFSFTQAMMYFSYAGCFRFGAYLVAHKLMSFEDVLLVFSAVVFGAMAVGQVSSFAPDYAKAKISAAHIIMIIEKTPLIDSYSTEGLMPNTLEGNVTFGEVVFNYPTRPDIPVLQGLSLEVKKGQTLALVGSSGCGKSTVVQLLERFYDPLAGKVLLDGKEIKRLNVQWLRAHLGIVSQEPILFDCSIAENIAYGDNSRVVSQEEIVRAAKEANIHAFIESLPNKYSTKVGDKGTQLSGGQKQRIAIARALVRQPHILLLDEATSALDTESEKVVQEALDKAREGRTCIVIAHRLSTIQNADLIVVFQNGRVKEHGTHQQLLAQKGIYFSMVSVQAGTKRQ

As for `C=CC(=O)Nc1cc(Nc2nccc(-n3cc(CN(C)C)c(-c4ccccc4)n3)n2)c(OC)cc1N1CCOCC1` [Lazertinib, N-(5-(4-(4-((dimethylamino)methyl)-3-phenyl-1H-pyrazol-1-yl)pyrimidin-2-ylamino)-4-methoxy-2-morpholinophenyl)acrylamide], on P-glycoprotein (P-gp), the “inhibition of P-gp” value is given as “inhibitor”. For the same compound, in series [1], the “inhibition of MRP4” value is “inhibitor”. Besides, the “inhibition of BCRP” value in series [2] is given as “inhibitor”. Moreover, the “inhibition of OCT1” value in series [3] was “inhibitor”.
On to amivantamab, for which the “impact of chemotherapy on amivantamab exposure” value (preliminary cycle 1 PK data (n=9), FIG. 3A-C) is “no impact; also recorded: not impacted”. The “amivantamab trough concentration / exposure, Q3W (21-day cycle) versus monotherapy Q2W (28-day cycle, 1050/1400 mg)” value (preliminary, FIG. 4A-B) is listed as “Similar”.
